# Laboratory results taken from patent EP4813988A1, “AI-DESIGNED BENZODIAZEPINE DERIVATIVE AND USE THEREOF” (Shenzhen Newrosetta Biosciences Co., Ltd, priority 2024, dated 2025).
# Read-outs that look alike come from different tables or passages of the source.
# Tests used:
# Human M2 receptor = target: T1, Human M2 receptor (Homo sapiens, UniProt P08172); test: FLIPR Calcium 6 assay for inhibitory activity against Human M2 receptor in CHO cells; assay type: cell-based; conditions: for M3/M2 selectivity: IC50 ratio of M3/M2
# T1 construct: expressed in transfected cells
# T1 sequence (P08172 1-466): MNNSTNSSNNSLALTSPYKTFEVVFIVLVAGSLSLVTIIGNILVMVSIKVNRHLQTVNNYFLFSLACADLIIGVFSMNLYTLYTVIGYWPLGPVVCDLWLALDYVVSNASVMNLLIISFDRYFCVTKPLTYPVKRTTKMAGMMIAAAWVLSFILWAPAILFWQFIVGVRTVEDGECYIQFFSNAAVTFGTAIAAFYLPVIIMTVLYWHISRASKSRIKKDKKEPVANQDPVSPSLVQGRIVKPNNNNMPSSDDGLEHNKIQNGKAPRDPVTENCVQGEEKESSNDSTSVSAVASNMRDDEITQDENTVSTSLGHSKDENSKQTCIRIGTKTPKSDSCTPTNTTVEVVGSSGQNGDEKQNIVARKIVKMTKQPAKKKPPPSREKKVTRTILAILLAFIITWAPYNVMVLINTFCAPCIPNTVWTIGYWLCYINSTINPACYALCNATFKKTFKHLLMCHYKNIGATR
# Method: (§1) CHO cell lines stably expressing Human M2 and Human M3, respectively, were used. The effects of the compounds on the activity of the Human M2 and Human M3 receptors were determined using the FLIPR Calcium 6 Assay Kit. The effects of the test substances on Human M2 and Human M3 were studied according to changes in cell signal intensity, and the corresponding concentration-response curves were calculated.
# (§2) • 1. The Human M2-CHO and Human M3-CHO cell lines were cultured in an F-12 culture medium containing 10% fetal bovine serum (AusGeneX, FBS500-S) and 0.2 mg/mL Hygromycin B (Solarbio, H8080-1g) at a culture temperature of 37 °C with 5% carbon dioxide. • 2. Cell passage: The old culture medium was removed in a biosafety cabinet, and the cells were washed once with PBS; 1 mL of 0.25% Trypsin-EDTA (Gibco, 25200-072) solution was then added; and the cells were incubated at 37 °C for about 2 min. When the cells were detached from the bottom of the dish, about 5 mL of complete culture medium pre-heated at 37 °C was added. The cell suspension was gently pipetted to separate the aggregated cells. The cell suspension was transferred to a sterile centrifuge tube and centrifuged at 1000 rpm for 5 min. • 3. In order to maintain the physiological activity of the cells, the experimental cell confluence was controlled at about 80% as observed under an inverted microscope (Olympus, CKX53).
# (§3) • 1. Cell plating: Human M2-CHO and Human M3-CHO cells were digested, collected, resuspended, counted, and then seeded into a 384-well cell plate (Corning, 3764) at a density of 1.2 × 10^4 cells/25 µL /well; the cell plate was then incubated in a 5% CO2 incubator at 37 °C for about 16-20 h. • 2. On day 2, an Assay Buffer (20 mM HEPES + 1× HBSS) was prepared according to the instructions of the FLIPR Calcium 6 Assay Kit (Molecular Devices, R8191); after 20× Component A was freeze-thawed to room temperature, it was diluted to 1× loading buffer with the Assay buffer, and placed at room temperature for later use. • 3. The culture medium in the cell plate was removed, 35 µL of the 1× loading buffer described above was quickly added to each well, and the cell plate was centrifuged using a microplate low speed centrifuge and then incubated in the dark at 37 °C for 120 min. • 4. The working solutions of a positive compound and the test compounds were each prepared in a 96-well dilution plate (Biao Sen, P-0.6-BSA-96-S); 5 µL of each solution was transferred to the corresponding cell wells; and the cell plate was incubated at 37 °C for 30 min in the dark. • 5. An agonist working solution was prepared and transferred to a 384-well compound plate (Corning, 264573) at 20 µL /well. • 6. The cell plate (Corning, 3764), the 384-well compound plate (Corning, 264573), and pipette tips were placed at corresponding positions of the FLIPR instrument; 10 µL of the agonist diluted in step 5 was added to each experimental well using the FLIPR® Penta; and data were collected at the wavelength of 515-575 nm. • 7. The signal values were plotted against the compound concentrations, and based on a non-linear regression method using the GraphPad Prism software, the curves were fit, and the IC50 values were calculated.
# (§4) • 1) Z′ factor = 1−3 × (SDMax+SDMin)/(AVGMax−AVGMin) [formula] • 2) CV Max = (SDMax/AVGMax) × 100% [formula] • 3) CV Min = (SDMin/AVGMin) × 100% [formula] • 4) Signal−to−noise ratio S/B = AVGMax /AVGMin [formula] • 5) The IC50 values of the compounds were calculated using the GraphPad Prism non-linear fitting formula: Y = Bottom + (Top−Bottom)/(1+10^(∧)((LogIC50−X)×HillSlope)) [formula] • 6) % inhibition rate formula: [formula] • Ratiopositive: mean value of positive control. • Ratiovehicle: mean value of negative control (0.1% DMSO).
# (§5) According to the experimental method described above, the inhibitory activity of the compounds disclosed herein against Human M2 and M3 receptors was assayed with AFDX-116 as a positive control compound. Table 3. […]
# Human M3 receptor = target: T2, Human M3 receptor (Homo sapiens, UniProt P20309); test: FLIPR Calcium 6 assay for inhibitory activity against Human M3 receptor in CHO cells; assay type: cell-based; conditions: FLIPR calcium signal, antagonist mode
# T2 construct: expressed in transfected cells
# Method: as §1, §2, §3, §4, §5
# guinea pig myopia model = test: In vivo efficacy evaluation in form-deprivation guinea pig myopia model (diopter by infrared photorefractor); conditions: 20 µL/eye once daily; for slowing down the progression of refraction decrease: 0.5 wt% eye drops, versus negative control group
# Excerpt: Objective: To evaluate the inhibitory effect of compound 2 on the progression of myopia (refractive error) in a guinea pig myopia model. Young guinea pigs have inherent refractive hyperopia, which gradually progresses towards emmetropization during eye development. Form deprivation accelerates the process of emmetropization. In this test, the delaying effect of compound 2 on the process of refractive emmetropization in modeled young guinea pigs was investigated.
# Sample preparation: 0.5 wt% compound 2 eye drops were formulated with compound 2 and a 10 wt% aqueous sulfobutylether-beta-cyclodextrin solution.
# Grouping: The guinea pigs were evenly divided into 3 groups according to the refractive value of the right eye: a negative control group, a model control group, and a compound 2 group.
# Modeling: Animals other than the negative control group were modeled. A myopia model was made by suturing the eyelid of the right eye. The modeling procedure is as follows: After hair removal was performed on the right eyes of all animals, the right eyes were sutured in a U-shape to achieve form deprivation and accelerate the process of emmetropization. The guinea pigs were fed for 28 days after the first suture.
# Administration: Starting from the day of suture modeling, eye drops were administered to the right eyes of the animals in each group according to settings (the samples for administration are shown in Table 4) at 20 µL /eye once daily for 28 consecutive days. Table 4. Administration and dosage design for each group
# Test: Diopter was measured on day 15 and day 29 after modeling using an infrared photorefractor (ST-PR.01, Striatech).
# [1] = Human M2-CHO cells, FLIPR calcium signal, antagonist mode, read-out: M2 IC50
# T2 sequence (P20309 whole entry): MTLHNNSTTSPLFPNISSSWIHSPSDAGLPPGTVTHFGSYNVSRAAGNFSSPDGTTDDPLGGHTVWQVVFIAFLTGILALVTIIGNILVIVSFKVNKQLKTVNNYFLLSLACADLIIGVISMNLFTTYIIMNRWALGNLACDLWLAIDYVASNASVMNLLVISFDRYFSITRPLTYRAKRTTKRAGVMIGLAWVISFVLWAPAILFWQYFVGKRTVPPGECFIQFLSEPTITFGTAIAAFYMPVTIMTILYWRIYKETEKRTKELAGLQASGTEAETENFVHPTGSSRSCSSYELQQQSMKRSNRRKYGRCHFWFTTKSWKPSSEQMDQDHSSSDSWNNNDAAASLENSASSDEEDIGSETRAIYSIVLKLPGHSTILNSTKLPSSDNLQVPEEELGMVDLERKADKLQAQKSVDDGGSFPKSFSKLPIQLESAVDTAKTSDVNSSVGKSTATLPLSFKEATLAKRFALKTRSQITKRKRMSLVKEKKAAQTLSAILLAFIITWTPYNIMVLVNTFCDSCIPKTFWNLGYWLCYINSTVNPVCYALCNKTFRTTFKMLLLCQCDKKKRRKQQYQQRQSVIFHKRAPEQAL
SMILES,IC50 (Human M2 receptor; [1]),M3/M2 selectivity (Human M2 receptor),IC50 (Human M3 receptor),IC50 (Human M2 receptor),"diopter (refractive value) (guinea pig myopia model; day 15, 0.5 wt% compound 2 eye drops, right eye, form deprivation by eyelid suture)",slowing down the progression of refraction decrease (guinea pig myopia model; day 15 of administration),slowing down the progression of refraction decrease (guinea pig myopia model; day 29 of administration)
O=C1Nc2cccnc2N(C(=O)CCC(=O)N2CCCC2CN2CCC3(CCCCC3)CC2)c2ccccc21 (stereo not drawn) [Compound 15],1.14 nM,217.6,247 nM,–,–,–,–
O=C1Nc2cccnc2N(C(=O)CCC(=O)N2CCCCC2CN2CCC3(CCCCC3)CC2)c2ccccc21 (stereo not drawn) [Compound 14],0.833 nM,394.1,328 nM,–,–,–,–
CCN(CCN1C2CCCC1CC2)C(=O)CCC(=O)N1c2ccccc2C(=O)Nc2cccnc21 [Compound 5],–,245.6,673 nM,2.74 nM,–,–,–
CCN(CCN(C)C1C2CCCC21)C(=O)CCC(=O)N1c2ccccc2C(=O)Nc2cccnc21 (stereo not drawn) [Compound 13],5.46 nM,47.6,260 nM,–,–,–,–
CCN(CCN(C)C1CC2(CCCCC2)C1)C(=O)CCC(=O)N1c2ccccc2C(=O)Nc2cccnc21 [Compound 10],2.58 nM,762,1970 nM,–,–,–,–
CCN(CCN(C)C1CCC2(CCCCC2)CC1)C(=O)CCC(=O)N1c2ccccc2C(=O)Nc2cccnc21 [Compound 1],3.23 nM,189,611 nM,–,–,–,–
CCN(CCN(C)CC1CCC2(CCCCC2)CC1)C(=O)CCC(=O)N1c2ccccc2C(=O)Nc2cccnc21 [Compound 3],6.54 nM,1041,6820 nM,–,–,–,–
CCN(CCN(C)C12CC3CC(CC(C3)C1)C2)C(=O)CCC(=O)N1c2ccccc2C(=O)Nc2cccnc21 [Compound 6],0.863 nM,838,723 nM,–,–,–,–
CCN(CCN1CCC2(CCC2)CC1)C(=O)CCC(=O)N1c2ccccc2C(=O)Nc2cccnc21 [Compound 8],0.896 nM,157.7,141 nM,–,–,–,–
"CCN(CC)CC1CCCCN1CC(=O)N1c2ccccc2C(=O)Nc2cccnc21 (stereo not drawn) [AFDX-116, reference compound]",166 nM,12,2100 nM,–,–,–,–
CCN(CCN(C)C1CC2CCCC2C1)C(=O)CCC(=O)N1c2ccccc2C(=O)Nc2cccnc21 (stereo not drawn) [Compound 12],1.82 nM,101,184 nM,–,–,–,–
CCN(CCN(C)C1CC2(CCC2)C1)C(=O)CCC(=O)N1c2ccccc2C(=O)Nc2cccnc21 [Compound 9],2.98 nM,295.7,881 nM,–,–,–,–
CCN(CCN(C)C1CCC2(CCCC2)C1)C(=O)CCC(=O)N1c2ccccc2C(=O)Nc2cccnc21 (stereo not drawn) [Compound 11],1.86 nM,149,277 nM,–,–,–,–
CCN(CCN(C)CC12CCC(CC1)C2)C(=O)CCC(=O)N1c2ccccc2C(=O)Nc2cccnc21 [Compound 4],1.49 nM,88.6,132 nM,–,–,–,–
CCN(CCN1CC2CC2C1)C(=O)CCC(=O)N1c2ccccc2C(=O)Nc2cccnc21 (stereo not drawn) [Compound 7],0.714 nM,75.87,54.1 nM,–,–,–,–
CCN(CCN1CCC2(CCCCC2)CC1)C(=O)CCC(=O)N1c2ccccc2C(=O)Nc2cccnc21 [Compound 2],0.733 nM,76,55.9 nM,–,increase in the positive refractive value,superior to the negative control group,comparable to the negative control group
